The values that follow come from patent publication US8293724B2, “Therapeutic applications of fatty acid amide hydrolase inhibitors” (The United States of America, as represented by the …, priority 2007, dated 2012).

In one data set the test system is Wistar-Kyoto rats (WKY). The data set can be described thus: Hemodynamic measurements in normotensive Wistar-Kyoto rats. In kind it is in vivo, rat. The method, then:
(§1) Anandamide, the CB1 receptor antagonist AM251, and the anandamide transport inhibitors AM404 and OMDM-2 were obtained from Tocris; and the CB1 antagonist SR141716 and the CB2 antagonist SR144528 were from the National Institute on Drug Abuse drug supply program. Drugs were mixed in corn oil and sonicated for 5 minutes at 4° C. The mixture was added to 4 parts of Pluronic F68 (Sigma-Aldrich) solution (40 mg/mL) dissolved in water and sonicated to obtain a stable suspension for bolus intravenous injections.
(§2) Rats were obtained from Harlan (Indianapolis, Ind.). Male, 8- to 10-month-old SHR, age-matched male Wistar-Kyoto rats (WKY), and 8- to 10-week-old male Sprague-Dawley rats were maintained on standard rat chow and water ad libitum. Dahl salt-sensitive and salt-resistant rats (male, Rapp strain, 6 weeks old) were maintained for 4 weeks on rat chow containing either 0.12% or 8% NaCl. Systolic blood pressure monitored daily by the tail-cuff technique was 120±11 mm Hg (salt-sensitive, 0.12% NaCl), 180±14 mm Hg (salt-sensitive, 8% NaCl), and 118±9 mm Hg (salt-resistant, 8% NaCl). Hypertension was induced in Sprague-Dawley rats by chronic infusion of angiotensin II (60 ng/min) via an osmotic minipump (Imig et al. Hypertension 2002; 39: 690-694. Rats were used 10 to 12 days after implantation of the minipump.
(§3) For hemodynamic measurements, rats were anesthetized with pentobarbital sodium (60 mg/kg IP) and tracheotomized to facilitate breathing. Animals were placed on controlled heating pads, and core temperature, measured via a rectal probe, was maintained at 37° C. A microtip pressure-volume catheter (SPR-838; Millar Instruments) was inserted into the right carotid artery and advanced into the left ventricle (LV) under pressure control as described previously. Polyethylene cannulae (P50) were inserted into the right femoral artery and vein for measurement of mean arterial pressure (MAP) and administration of drugs, respectively. […] Heart rate, maximal LV systolic pressure, MAP, and maximal slope of systolic pressure increment (+dP/dt) were computed with a cardiac pressure-volume analysis program (PVAN2.9; Millar). Cardiac output calculated and corrected according to in vitro and in vivo volume calibrations with PVAN2.918 was normalized to body weight (cardiac index [CI]). Total peripheral resistance index (TPRI) was calculated by the equation TPRI=MAP/CI. In 3 experiments, drugs were microinjected into the fourth cerebral ventricle as described by Ramirez-Gonzalez et al. Circ Res. 1983; 53, 150-157.
(§4) Time-dependent variables were analyzed by ANOVA followed by the Dunnett post hoc test. In other cases, the Student t test was used, as appropriate. Values with P<0.05 were considered statistically significant.

The test system of data set [1] is spontaneously hypertensive rat (SHR). The data set can be described thus: Hemodynamic measurements in anesthetized spontaneously hypertensive rats. The settings on record: for change in MAP: n=4. In kind it is in vivo. How it is done:
as §1
as §2, with “Systolic blood pressure monitored daily by the tail-cuff technique was 120±11 mm Hg (salt-sensitive, 0.12% NaCl), 180±14 mm Hg (salt-sensitive, 8% NaCl), and 118±9 mm Hg (salt-resistant, 8% NaCl).” left out
as §3, §4

Data set [2] concerns liver-specific CB1 receptor knockout mice. Description: Intraperitoneal glucose tolerance test in liver-specific CB1 receptor knockout mice on high-fat diet. It counts as in vivo. As to conditions: URB597 10 mg/kg i.p., liver-specific CB1 knockout mice on HFD. The method, then:
(§5) Male C57Bl6/J mice, wild-type or liver-specific CB1 receptor knockout, were kept on a diet containing 60% of calories as fat (Research Diets Inc) for 14 weeks, by which time both strains have become fat due to increased adipose mass. […] Sixty minutes later the mice received 1.5 g/kg glucose i.p. and blood glucose levels were monitored for 2 hours.

Data set [3] deals with male DIO mice (wild-type C57Bl6/J on high-fat diet). Description: Intraperitoneal glucose tolerance test in wild-type mice with diet-induced obesity. In kind it is in vivo. The settings on record: URB597 10 mg/kg i.p., 60 min before glucose 1.5 g/kg i.p., 10 mg/kg. How it is done: as §5
In data set [4] the test system is normotensive controls (Sprague-Dawley rats). The data set can be described thus: Blood pressure in normotensive controls of angiotensin II-treated rats. It counts as in vivo, rat. The settings on record: URB597, normotensive controls of angiotensin II-treated rats.
Text: as §2
(§6) For hemodynamic measurements, rats were anesthetized with pentobarbital sodium (60 mg/kg IP) and tracheotomized to facilitate breathing. Animals were placed on controlled heating pads, and core temperature, measured via a rectal probe, was maintained at 37° C. […] Cardiac output calculated and corrected according to in vitro and in vivo volume calibrations with PVAN2.918 was normalized to body weight (cardiac index [CI]). Total peripheral resistance index (TPRI) was calculated by the equation TPRI=MAP/CI. […]

The target of a further data set is T1, FAAH (Mus musculus, UniProt O08914).
T1 construct: the brain and liver removed, and tissue homogenates prepared as described above; from tissue; host or cells: mouse brain and liver homogenates after in vivo dosing
T1 sequence (O08914 1-579): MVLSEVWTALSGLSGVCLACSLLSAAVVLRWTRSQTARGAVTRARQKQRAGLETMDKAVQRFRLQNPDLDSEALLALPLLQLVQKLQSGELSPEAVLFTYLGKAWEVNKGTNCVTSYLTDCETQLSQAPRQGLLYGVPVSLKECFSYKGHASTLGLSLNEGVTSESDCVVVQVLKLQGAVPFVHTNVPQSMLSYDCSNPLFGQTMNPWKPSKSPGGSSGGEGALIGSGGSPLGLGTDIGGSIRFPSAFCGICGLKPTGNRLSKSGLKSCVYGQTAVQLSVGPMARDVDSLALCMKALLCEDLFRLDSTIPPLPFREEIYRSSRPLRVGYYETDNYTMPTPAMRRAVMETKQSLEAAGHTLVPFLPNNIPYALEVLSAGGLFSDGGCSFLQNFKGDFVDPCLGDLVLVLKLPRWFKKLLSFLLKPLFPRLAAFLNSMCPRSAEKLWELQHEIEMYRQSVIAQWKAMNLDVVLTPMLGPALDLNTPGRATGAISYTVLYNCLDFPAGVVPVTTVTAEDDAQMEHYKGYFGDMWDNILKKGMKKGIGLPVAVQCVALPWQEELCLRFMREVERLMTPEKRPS
Description: FAAH activity in brain and liver homogenates following in vivo administration. Further details: species or system mice. The settings on record: mouse. How it is done: For the experiments illustrated in FIG. 3, FAAH activity was assessed through a different method not requiring TLC separation, as described by Jonsson et al: Br. J. Pharmacol. 133:1263-1275, 1997. […] The mice were sacrificed one hour later, the brain and liver removed, and tissue homogenates prepared as described above. [^3H]Anandamide labeled on the ethanolamide moiety was added to the homogenate and incubated at 37° C. for 10 min. The homogenate was then extracted twice with chloroform:methanol 1:1 and the radioactivity in the aqueous phase (containing the released ethanolamide) was counted.

The test system of data set [5] is angiotensin II-treated hypertensive rats. Description: Blood pressure in angiotensin II-treated hypertensive rats. In kind it is in vivo, rat.
Text: as §2, §6

The nature of data set [6]: Non-fasting blood glucose in SHR and WKY. The settings on record: URB597 10 mg/kg i.p., n=4.

The structures appear in SMILES notation. Entries after “also recorded” stand apart in the source; their conditions may differ.

For the compound `CCCCC/C=C\C/C=C\C/C=C\C/C=C\CCCC(=O)Nc1ccc(O)cc1` [AM404], the “change in MAP” value is on record as “no significant change” with Wistar-Kyoto rats (WKY) (AM404 10 mg/kg) and −63±19 mm Hg in data set [1] (AM404 10 mg/kg, SHR).
Turning to `CCCCCCC(C)(C)c1cc(O)c2c(c1)OC(C)(C)[C@@H]1CC=C(CO)C[C@@H]21` [HU210], the “hypotensive EC50” value in the data set with Wistar-Kyoto rats (WKY) (n=6) was 5.9 µg/kg; in data set [1] (SHR, n=6), 1.5 µg/kg. Besides, the maximal hypotensive effect with Wistar-Kyoto rats (WKY) (n=6) was −39±14 mm Hg; in data set [1] (SHR, n=6), −108±11 mm Hg.
Regarding `CCCCCCCC/C=C\CCCCCCCC(=O)N[C@@H](CO)Cc1ccc(O)cc1` [OMDM-2], the “change in MAP” value in the data set on Wistar-Kyoto rats (WKY) (OMDM-2 5 mg/kg) is “no significant change”; in data set [1] (OMDM-2 5 mg/kg, SHR), −39±10 mm Hg.
What is called ED50 is the dose that gives a 50% effect, or the effect in half of the subjects. The inhibition is the percentage by which the read-out fell short of the control. On to `NC(=O)c1cccc(-c2cccc(OC(=O)NC3CCCCC3)c2)c1` [URB597], for which, in data set [2], the glucose tolerance result was “failed to affect glucose tolerance”. Besides, the glucose intolerance result in data set [3] is reported as “marked increase in their glucose intolerance; also recorded: increases glucose intolerance”. Besides, the hemodynamic effects entry in the data set on Wistar-Kyoto rats (WKY) (URB597 10 mg/kg IV) is listed as “no detectable hemodynamic effects”. For the same compound, the blood pressure entry in data set [4] is listed as “not in their normotensive controls”. Besides, the ED50 in data set [1] (Rattus norvegicus, dose-response studies, n=3, read-out: hypotensive ED50) came out at 1.7 mg/kg. Moreover, the “hypotensive response after pretreatment with the VR1 antagonist capsazepine” value in data set [1] (SHR) was “not affected by capsazepine pretreatment”. In data set [1] (URB597 10 mg/kg IV, SHR), the LV systolic pressure result is recorded as “decreased”, the TPRI result is listed as “decreased”, the arterial pressure entry is “decreased arterial pressure to normotensive levels” and the dP/dt result is “decreased”. Besides, the “cardiac contractility (pressure/volume relationship)” value in data set [1] (URB597, SHR) was “decrease in cardiac contractility”. Also, the “effects of URB597 in the hypertensive animals in the presence of CB1 antagonists” value in data set [1] (hypertensive animals, CB1 antagonists) is “could be prevented by CB1 antagonists”. Further, on FAAH (in vivo, 10 mg/kg), the “inhibition of FAAH activity in the liver” value is “significantly inhibits FAAH activity in the liver” and the “inhibition of FAAH in brain” value is listed as “near complete inhibition”. Also, the inhibition at 10 mg/kg at FAAH (read-out: inhibition of FAAH in liver) was > 90%. The blood pressure result in data set [5] (URB597, angiotensin II-treated hypertensive rats) is listed as “lowered blood pressure”. Also, in data set [6] (SHR, from 104.0±7.4), the “non-fasting blood glucose after treatment” value is 144.0 ± 9.6 mg/dL. In addition, the “non-fasting blood glucose after treatment” value in data set [6] (WKY, from 90.0±7.2) came out at 135.3 ± 12.9 mg/dL.
For the compound `CCCCC/C=C\C/C=C\C/C=C\C/C=C\CCCC(=O)NCCO` [anandamide], in the data set with Wistar-Kyoto rats (WKY) (anandamide 10 mg/kg), the blood pressure result is “modest and short-lasting”; the cardiac contractility result is “modest and short-lasting”; the “duration of decrease in blood pressure and cardiac contractility” value is < 5 min; the other hemodynamic changes result is on record as “without other hemodynamic changes”. Also, in data set [1] (SHR), the “hypotensive response after pretreatment with the VR1 antagonist capsazepine” value is recorded as “not affected by capsazepine pretreatment”. In data set [1] (anandamide 10 mg/kg, SHR), the CI entry is “decreases”; the TPRI entry is “decreases”; the blood pressure result is on record as “sustained decrease in blood pressure to near normotensive levels”; the “cardiac contractility (dP/dt, LV systolic pressure)” value is given as “decreases”. Also, the heart rate entry in data set [1] (anandamide 10 mg/kg, SHR) is on record as “decreases”. Also, the anandamide-induced hypotension entry in data set [5] (rats with angiotensin II-induced hypertension) is “potentiated”.
